The values that follow come from US20250114424A1, “PLANT EXTRACT-BASED COMPOSITION AND ITS USE FOR TREATING GLUCOSE METABOLISM DISORDERS” (ESSERRE PHARMA SRL, priority 2021, published 2025).

For data set [1] the following is noted: cited from earlier work.
Data set [2] deals with subjects with type II diabetes mellitus. Particulars: 500 mg daily for 6 weeks; cited from earlier work.
The conditions of data set [3]: in vivo; cited from earlier work.
Data set [4] concerns rats with streptozocin-induced diabetes. Particulars: 40 mg/kg for 30 days; cited from earlier work.
In data set [5] the test system is semi-professional cyclists. Particulars: single dose of 500 mg; cited from earlier work.
In another data set the test system is incidence of diabetes. Particulars: pharmacological treatment vs lifestyle changes (58%); cited from earlier work.
For data set [6], the system named is adult individuals with dysglycaemia (baseline blood glucose between 100 and 125 mg/dL). Nature of the data set: Clinical evaluation of the efficacy of the composition: double-blind, placebo-controlled pilot clinical study, 12 weeks. The format is in vivo, humans. The protocol:
A single-centre, […], double-blind, placebo-controlled, pilot clinical study was conducted to evaluate the efficacy of the composition object of the present invention on humans in reducing insulin resistance-related risk factors. The study was carried out in accordance with the guidelines of the Helsinki Declaration and approved by the Ethics Committee of the Hospital. 100 adult individuals of both sexes were enrolled (47 women and 53 men, aged 20 to 75 years) with dysglycaemia (baseline blood glucose between 100 and 125 mg/dL on at least two consecutive occasions), in primary prevention for cardiovascular disease.
Exclusion criteria: dysglycaemia secondary to pathological or iatrogenic causes, systemic diseases associated with dysglycaemia, uncompensated dysthyroidism, treatment with drugs potentially interacting with glucose metabolism (for example corticosteroids, atypical antipsychotics).
The subjects enrolled were randomized into 5 groups, each consisting of 20 individuals: • Group A: 1 tablet of active (COMP) twice daily • Group B: 1 placebo tablet twice daily • Group C: 1 tablet of lemon extract 250 mg twice daily • Group D: 1 tablet of blood orange extract 100 mg twice daily • Group E: 1 tablet of chromium 100 mcg twice daily
All the enrolled subjects were subjected, 14 days prior to enrolment (T-14), to a pre-enrolment visit with blood tests to assess meeting the inclusion criteria. The individuals who met the TO inclusion criteria underwent a randomization visit at which the respective treatment was assigned and blood tests were performed in relation to the reference parameters.
The study lasted 12 weeks.
At the end of treatment (T12), the subjects were subjected to an end-of-study visit and blood tests.
The parameters investigated in the study are: Body mass index, systolic and diastolic blood pressure, glycated haemoglobin (HbAlc) fasting plasma glucose (FPG), fasting insulinemia (FPI), HOMA-index, triglycerides, gammaGT, creatinine phosphokinase (CPK).
The treatment called “active” or “COMPOSITION (COMP)” consists of a 570 mg tablet consisting of 250 mg lemon extract, 100 mg blood orange extract, 100 mcg chromium (as chromium picolinate), in addition to excipients such as calcium phosphate, magnesium stearate, silicon dioxide, hydroxypropyl cellulose, mono- and di-glycerides of fatty acids, microcrystalline cellulose, yellow iron oxide as a dye, coating agents. The treatment called “placebo” consists of a tablet equal in shape, weight, colour size and flavour to the active tablet but containing “inert” material for the desired effect and consists of: microcrystalline cellulose, magnesium stearate, silicon dioxide, calcium phosphate, chlorophylline dye, yellow iron oxide dye, coating agents.
The treatments related to groups C, D and E consist of one tablet equal in appearance to the tablets of groups A and B but consisting of the single active ingredient, as described above in addition to excipients.
The treatment tablets were packaged in anonymous white bottles, showing only the batch number consisting of an alphanumeric code and the expiration date. Neither the investigator nor the study subjects knew the contents of the bottles. The bottles of each treatment were placed in cardboard boxes containing a letter in a sealed envelope with reference to the batch number and content, to be opened only in case of need, as in cases of serious adverse events. After randomization, each study participant was given the bottle with 60 tablets for the specific treatment of the group to which they belonged.
All the subjects were instructed to take one tablet in the morning and one in the evening for 12 weeks.

[7] abbreviates: 12-Week follow-up, 1 tablet twice daily.

As for `COc1ccc([C@@H]2CC(=O)c3c(O)cc(O[C@@H]4O[C@H](CO[C@@H]5O[C@@H](C)[C@H](O)[C@@H](O)[C@H]5O)[C@@H](O)[C@H](O)[C@H]4O)cc3O2)cc1O` [hesperidin, 3′,5,7-trihydroxy-4′-methoxy-flavanone-7-rhamnoglucoside], in data set [1], the water solubility result was “poor water solubility”. In data set [2], the “inflammation and blood pressure” value was “reduced inflammation and blood pressure”. Moreover, the bioavailability result in data set [3] is recorded as “low bioavailability”. Further, in data set [4], the “fasting glycaemia, insulinemia and glycated haemoglobin” value was “reduced fasting glycaemia, insulinemia and glycated haemoglobin”. For the same molecule, in data set [5], the “physical performance and oxidative stress” value was “improved physical performance and modulated oxidative stress”.
Consider `CN(C)C(=N)N=C(N)N` [metformin], for which the “reduction in the incidence of diabetes” value with incidence of diabetes is recorded as 31%.
In the case of chromium picolinate, in data set [6] (setting [7]), the BMI is given as 26.2 ± 1.0 kg/m2, the CPK was 133 ± 22 U/L, the DBP was found to be 84 ± 4 mmHg and the FPG was 112 ± 4 mg/dL. In data set [6] (setting [7]), this molecule came in with an FPI of 20.9 ± 1.1 μU/ml, a Gamma-GT of 27 ± 6 U/L, a HbA1c of 6.4 ± 0.1% and an SBP of 130 ± 7 mmHg. In data set [6] (setting [7]), this molecule had a TG of 152 ± 10 mg/dL. In data set [6] (12-Week follow-up, 1 tablet twice daily, HOMA-IR=(FPG*FPI)/405), this molecule registered an HOMA-IR of 5.7 ± 1.8. Further, in data set [6] (Baseline), the BMI was 26.2 ± 1.0 kg/m2, the CPK is given as 134 ± 25 U/L, the DBP was determined as 85 ± 6 mmHg and the FPG was found to be 117 ± 5 mg/dL. In data set [6] (Baseline), the FPI is 22.9 ± 1.0 μU/ml, the Gamma-GT was determined as 24 ± 9 U/L, the HbA1c was found to be 6.4 ± 0.3% and the SBP worked out at 131 ± 5 mmHg. In data set [6] (Baseline), this molecule registered a TG of 159 ± 12 mg/dL. This molecule also displayed an HOMA-IR in data set [6] (Baseline, HOMA-IR=(FPG*FPI)/405) of 6.6 ± 1.2. The “Observed efficacy rate (%), Reduction of FPG (−)” value in data set [6] (Chromium alone 100 mcg, Group E of example 7, 12 weeks) is −4.2%. Moreover, the “reductions in HbAlc, FPG, FPI, HOMA-index, triglycerides (statistical significance)” value in data set [6] (after 12 weeks of treatment, with respect to baseline and placebo) was “did not show statistically significant reductions”. In addition, in data set [6] (after 12 weeks vs baseline), the “reduction of fasting insulinemia (FPI)” value turned out to be 4%, the “reduction of fasting plasma glucose (FPG)” value was 4.2% and the “reduction of glycated haemoglobin (HbAlc)” value is “did not achieve reductions”. In addition, the “reduction of HOMA index” value in data set [6] (after 12 weeks vs baseline, HOMA-IR=(FPG*FPI)/405) worked out at 13%.
